These are literature values, as cited in patent US7592468B2, “Production of Δ 9 tetrahydrocannabinol” (Resolution Chemicals Limited, priority 2003, dated 2009).

Each structure is given as a SMILES string.

The conditions of this series: greater than Δ8-THC.

For the molecule `CCCCCc1cc(O)c2c(c1)OC(C)(C)[C@@H]1CCC(C)=C[C@@H]21` [Δ9-THC, Delta 9 tetrahydrocannabinol], the “psychomimetic activity relative to Δ8-THC” value is 20 times.
